# According to publication PMC11842588, “A first-in-class selective inhibitor of ERK1/2 and ERK5 overcomes drug resistance with a single-molecule strategy” (Signal Transduction and Targeted Therapy, 2025):
# Assays:
# Test in all cases: Kinase profiling
# Type in all cases: biochemical
# AAK1(h) = molecular target: T1, AAK1(h) (Homo sapiens, UniProt Q2M2I8)
# T1 construct: purchased Eurofins Cerep SA (KinaseProfiler)
# Experimental: (§1) 380 kinases inhibitory activities of SKLB-D18 were conducted by Eurofins Cerep SA. The result was illustrated by kinase tree (http://www.kinhub.org/kinmap/).
# Aurora-B(h) = molecular target: T2, Aurora-B(h) (Homo sapiens, UniProt Q96GD4)
# T2 construct: purchased Eurofins Cerep SA (KinaseProfiler)
# Experimental: as §1
# Axl(h) = molecular target: T3, Axl(h) (Homo sapiens, UniProt P30530)
# T3 construct: purchased Eurofins Cerep SA (KinaseProfiler)
# Experimental: as §1
# BTK(h) = molecular target: T4, BTK(h) (Homo sapiens, UniProt Q06187)
# T4 construct: purchased Eurofins Cerep SA (KinaseProfiler)
# Experimental: as §1
# Bmx(h) = molecular target: T5, Bmx(h) (Homo sapiens, UniProt P51813)
# T5 construct: purchased Eurofins Cerep SA (KinaseProfiler)
# Experimental: as §1
# CDK6/cyclinD3(h) = molecular target: T6, CDK6/cyclinD3(h) (Homo sapiens, UniProt Q00534)
# T6 construct: purchased Eurofins Cerep SA (KinaseProfiler)
# Experimental: as §1
# CDKL1(h) = molecular target: T7, CDKL1(h) (Homo sapiens, UniProt Q00532)
# T7 construct: purchased Eurofins Cerep SA (KinaseProfiler)
# Experimental: as §1
# CaMKI(h) = molecular target: T8, CaMKI(h) (Homo sapiens, UniProt Q14012)
# T8 construct: purchased Eurofins Cerep SA (KinaseProfiler)
# Experimental: as §1
# CaMKIIβ(h) = molecular target: T9, CaMKIIβ(h) (Homo sapiens, UniProt Q13554)
# T9 construct: purchased Eurofins Cerep SA (KinaseProfiler)
# Experimental: as §1
# CaMKK2(h) = molecular target: T10, CaMKK2(h) (Homo sapiens, UniProt Q96RR4)
# T10 construct: purchased Eurofins Cerep SA (KinaseProfiler)
# T10 sequence (Q96RR4 whole entry): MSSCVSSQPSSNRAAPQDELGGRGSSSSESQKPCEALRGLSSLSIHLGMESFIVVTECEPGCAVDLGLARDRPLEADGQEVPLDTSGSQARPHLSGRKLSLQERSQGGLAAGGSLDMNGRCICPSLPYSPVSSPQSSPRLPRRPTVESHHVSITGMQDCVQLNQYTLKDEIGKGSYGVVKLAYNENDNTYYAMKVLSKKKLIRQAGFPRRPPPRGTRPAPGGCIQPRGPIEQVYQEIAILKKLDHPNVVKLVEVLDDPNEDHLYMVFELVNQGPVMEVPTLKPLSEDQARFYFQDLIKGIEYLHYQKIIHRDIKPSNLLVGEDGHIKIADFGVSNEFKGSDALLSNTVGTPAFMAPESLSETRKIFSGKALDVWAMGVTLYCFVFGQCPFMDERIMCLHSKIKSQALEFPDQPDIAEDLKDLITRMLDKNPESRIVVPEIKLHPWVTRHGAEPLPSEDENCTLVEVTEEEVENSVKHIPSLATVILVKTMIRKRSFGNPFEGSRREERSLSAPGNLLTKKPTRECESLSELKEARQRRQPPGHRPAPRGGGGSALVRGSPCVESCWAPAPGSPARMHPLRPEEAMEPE
# Experimental: as §1
# FGFR1(h) = molecular target: T11, FGFR1(h) (Homo sapiens, UniProt P11362)
# T11 construct: purchased Eurofins Cerep SA (KinaseProfiler)
# Experimental: as §1
# GCK(h) = molecular target: T12, GCK(h) (Homo sapiens, UniProt Q12851)
# T12 construct: purchased Eurofins Cerep SA (KinaseProfiler)
# Experimental: as §1
# Hck(h) activated = molecular target: T13, Hck(h) activated (Homo sapiens, UniProt P08631)
# T13 construct: purchased Eurofins Cerep SA (KinaseProfiler)
# Experimental: as §1
# IKKβ(h) = molecular target: T14, IKKβ(h) (Homo sapiens, UniProt O14920)
# T14 construct: purchased Eurofins Cerep SA (KinaseProfiler)
# Experimental: as §1
# MAK(h) = molecular target: T15, MAK(h) (Homo sapiens, UniProt P20794)
# T15 construct: purchased Eurofins Cerep SA (KinaseProfiler)
# Experimental: as §1
# MAP4K4(h) = molecular target: T16, MAP4K4(h) (Homo sapiens, UniProt O95819)
# T16 construct: purchased Eurofins Cerep SA (KinaseProfiler)
# T16 sequence (O95819 whole entry): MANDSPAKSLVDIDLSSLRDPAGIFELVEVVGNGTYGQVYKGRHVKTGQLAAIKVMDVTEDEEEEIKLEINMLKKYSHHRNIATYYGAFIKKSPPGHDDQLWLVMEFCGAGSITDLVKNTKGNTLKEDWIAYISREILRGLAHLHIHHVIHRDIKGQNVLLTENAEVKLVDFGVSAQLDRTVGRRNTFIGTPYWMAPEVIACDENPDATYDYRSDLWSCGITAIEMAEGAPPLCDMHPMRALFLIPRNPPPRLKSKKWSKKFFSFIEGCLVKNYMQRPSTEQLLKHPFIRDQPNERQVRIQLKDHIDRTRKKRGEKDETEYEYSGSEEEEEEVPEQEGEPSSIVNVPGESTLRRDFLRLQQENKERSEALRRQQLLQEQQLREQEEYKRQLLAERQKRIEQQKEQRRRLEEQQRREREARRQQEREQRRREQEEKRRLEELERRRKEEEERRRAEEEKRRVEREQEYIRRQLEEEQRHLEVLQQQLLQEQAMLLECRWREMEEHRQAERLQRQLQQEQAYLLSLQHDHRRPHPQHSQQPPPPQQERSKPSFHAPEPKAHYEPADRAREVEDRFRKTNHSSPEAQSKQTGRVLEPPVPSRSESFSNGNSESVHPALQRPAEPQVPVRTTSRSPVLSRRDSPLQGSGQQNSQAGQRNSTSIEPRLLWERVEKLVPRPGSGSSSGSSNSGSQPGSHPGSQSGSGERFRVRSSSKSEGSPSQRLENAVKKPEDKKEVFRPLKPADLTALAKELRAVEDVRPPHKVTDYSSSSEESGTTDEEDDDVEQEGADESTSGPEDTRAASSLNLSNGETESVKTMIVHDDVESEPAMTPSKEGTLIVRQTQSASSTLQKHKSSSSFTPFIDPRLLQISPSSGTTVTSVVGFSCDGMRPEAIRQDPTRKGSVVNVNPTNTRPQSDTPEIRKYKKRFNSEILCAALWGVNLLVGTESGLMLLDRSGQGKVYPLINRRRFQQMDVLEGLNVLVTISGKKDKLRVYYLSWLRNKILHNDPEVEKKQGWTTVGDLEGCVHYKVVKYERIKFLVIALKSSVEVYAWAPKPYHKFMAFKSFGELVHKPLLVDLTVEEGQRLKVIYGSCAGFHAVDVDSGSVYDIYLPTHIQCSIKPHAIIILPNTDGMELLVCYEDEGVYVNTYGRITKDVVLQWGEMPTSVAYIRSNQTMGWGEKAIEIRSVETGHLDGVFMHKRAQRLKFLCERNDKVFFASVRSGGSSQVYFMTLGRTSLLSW
# Experimental: as §1
# MAP4K5(h) = molecular target: T17, MAP4K5(h) (Homo sapiens, UniProt Q9Y4K4)
# T17 construct: purchased Eurofins Cerep SA (KinaseProfiler)
# T17 sequence (Q9Y4K4 whole entry): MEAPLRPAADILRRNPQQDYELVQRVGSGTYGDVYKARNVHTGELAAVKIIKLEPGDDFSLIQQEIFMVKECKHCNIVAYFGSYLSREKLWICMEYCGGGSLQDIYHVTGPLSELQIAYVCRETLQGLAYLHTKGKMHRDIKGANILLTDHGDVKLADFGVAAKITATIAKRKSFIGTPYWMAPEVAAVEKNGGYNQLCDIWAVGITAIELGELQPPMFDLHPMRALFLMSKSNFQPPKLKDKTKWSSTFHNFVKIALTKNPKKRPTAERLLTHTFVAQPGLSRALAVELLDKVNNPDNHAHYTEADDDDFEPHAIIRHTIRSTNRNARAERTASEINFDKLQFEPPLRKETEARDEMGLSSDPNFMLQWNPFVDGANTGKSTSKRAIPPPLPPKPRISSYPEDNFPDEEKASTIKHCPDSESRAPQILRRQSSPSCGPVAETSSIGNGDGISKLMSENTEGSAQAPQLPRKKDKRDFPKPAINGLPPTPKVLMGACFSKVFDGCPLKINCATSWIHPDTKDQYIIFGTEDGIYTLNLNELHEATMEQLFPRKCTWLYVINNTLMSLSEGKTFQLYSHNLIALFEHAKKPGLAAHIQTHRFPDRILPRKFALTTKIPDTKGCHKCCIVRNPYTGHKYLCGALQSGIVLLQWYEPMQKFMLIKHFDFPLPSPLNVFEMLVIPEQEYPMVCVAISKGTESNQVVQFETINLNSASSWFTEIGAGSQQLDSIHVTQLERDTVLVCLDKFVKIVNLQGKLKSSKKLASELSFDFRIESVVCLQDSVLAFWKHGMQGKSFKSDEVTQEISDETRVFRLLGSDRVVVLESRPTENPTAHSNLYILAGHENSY
# Experimental: as §1
# MKK3(h) = molecular target: T18, MKK3(h) (Homo sapiens, UniProt P46734)
# T18 construct: purchased Eurofins Cerep SA (KinaseProfiler)
# Experimental: as §1
# Mnk1(h) = molecular target: T19, Mnk1(h) (Homo sapiens, UniProt Q9BUB5)
# T19 construct: purchased Eurofins Cerep SA (KinaseProfiler)
# Experimental: as §1
# MuSK(h) = molecular target: T20, MuSK(h) (Homo sapiens, UniProt O15146)
# T20 construct: purchased Eurofins Cerep SA (KinaseProfiler)
# Experimental: as §1
# NEK4(h) = molecular target: T21, NEK4(h) (Homo sapiens, UniProt P51957)
# T21 construct: purchased Eurofins Cerep SA (KinaseProfiler)
# Experimental: as §1
# NEK9(h) = molecular target: T22, NEK9(h) (Homo sapiens, UniProt Q8TD19)
# T22 construct: purchased Eurofins Cerep SA (KinaseProfiler)
# Experimental: as §1
# OSR1(h) = molecular target: T23, OSR1(h) (Homo sapiens, UniProt O95747)
# T23 construct: purchased Eurofins Cerep SA (KinaseProfiler)
# Experimental: as §1
# PAK3(h) = molecular target: T24, PAK3(h) (Homo sapiens, UniProt O75914)
# T24 construct: purchased Eurofins Cerep SA (KinaseProfiler)
# T24 sequence (O75914 whole entry): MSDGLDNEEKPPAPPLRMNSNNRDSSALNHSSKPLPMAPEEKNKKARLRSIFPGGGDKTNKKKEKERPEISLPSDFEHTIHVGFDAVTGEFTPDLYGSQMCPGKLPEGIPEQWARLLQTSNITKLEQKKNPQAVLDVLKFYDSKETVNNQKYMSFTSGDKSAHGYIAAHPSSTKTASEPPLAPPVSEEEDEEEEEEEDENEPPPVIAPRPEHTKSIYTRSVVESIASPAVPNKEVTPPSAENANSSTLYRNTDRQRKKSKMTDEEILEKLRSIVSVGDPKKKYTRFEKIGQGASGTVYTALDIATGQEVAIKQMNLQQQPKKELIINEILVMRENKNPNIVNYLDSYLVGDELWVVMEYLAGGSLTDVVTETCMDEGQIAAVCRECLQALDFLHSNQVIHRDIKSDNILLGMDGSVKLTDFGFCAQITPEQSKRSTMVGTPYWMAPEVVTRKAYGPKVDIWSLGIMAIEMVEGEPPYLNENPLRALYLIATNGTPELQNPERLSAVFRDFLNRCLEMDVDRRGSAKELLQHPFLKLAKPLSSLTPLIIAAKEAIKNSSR
# Experimental: as §1
# PAK5(h) = molecular target: T25, PAK5(h) (Homo sapiens, UniProt Q9P286)
# T25 construct: purchased Eurofins Cerep SA (KinaseProfiler)
# T25 sequence (Q9P286 whole entry): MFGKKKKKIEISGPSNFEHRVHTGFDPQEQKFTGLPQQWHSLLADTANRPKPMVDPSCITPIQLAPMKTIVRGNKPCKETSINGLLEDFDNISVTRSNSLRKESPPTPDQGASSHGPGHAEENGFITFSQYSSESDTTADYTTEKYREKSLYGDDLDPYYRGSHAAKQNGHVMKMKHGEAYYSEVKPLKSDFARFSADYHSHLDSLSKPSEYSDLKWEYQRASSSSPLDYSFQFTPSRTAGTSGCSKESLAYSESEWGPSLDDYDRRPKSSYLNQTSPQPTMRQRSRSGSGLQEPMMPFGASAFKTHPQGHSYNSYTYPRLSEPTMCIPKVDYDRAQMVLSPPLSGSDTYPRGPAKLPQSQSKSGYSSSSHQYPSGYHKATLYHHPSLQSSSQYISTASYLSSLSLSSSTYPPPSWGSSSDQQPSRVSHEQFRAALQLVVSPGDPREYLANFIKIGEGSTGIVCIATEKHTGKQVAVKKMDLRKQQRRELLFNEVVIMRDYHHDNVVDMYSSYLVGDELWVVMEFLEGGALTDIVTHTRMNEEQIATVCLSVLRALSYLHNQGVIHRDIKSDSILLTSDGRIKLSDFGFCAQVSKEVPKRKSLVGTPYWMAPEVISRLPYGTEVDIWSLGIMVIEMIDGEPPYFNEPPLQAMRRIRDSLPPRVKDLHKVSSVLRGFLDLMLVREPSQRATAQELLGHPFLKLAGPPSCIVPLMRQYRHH
# Experimental: as §1
# PAK6(h) = molecular target: T26, PAK6(h) (Homo sapiens, UniProt Q9NQU5)
# T26 construct: purchased Eurofins Cerep SA (KinaseProfiler)
# Experimental: as §1
# PASK(h) = molecular target: T27, PASK(h) (Homo sapiens, UniProt Q96RG2)
# T27 construct: purchased Eurofins Cerep SA (KinaseProfiler)
# Experimental: as §1
# [1] = molecular target: T28, PI3 Kinase (p110a/p85a)(h) (Homo sapiens, UniProt P42336)
# T28 construct: purchased Eurofins Cerep SA (KinaseProfiler)
# Experimental: as §1
# PI3KC2a(h) = molecular target: T29, PI3KC2a(h) (Homo sapiens, UniProt O00443)
# T29 construct: purchased Eurofins Cerep SA (KinaseProfiler)
# Experimental: as §1
# PKG1α(h) = molecular target: T30, PKG1α(h) (Homo sapiens, UniProt Q13976)
# T30 construct: purchased Eurofins Cerep SA (KinaseProfiler)
# Experimental: as §1
# PKG1β(h) = molecular target: T31, PKG1β(h) (Homo sapiens, UniProt Q13976)
# T31 construct: purchased Eurofins Cerep SA (KinaseProfiler)
# Experimental: as §1
# Plk1(h) = molecular target: T32, Plk1(h) (Homo sapiens, UniProt P53350)
# T32 construct: purchased Eurofins Cerep SA (KinaseProfiler)
# Experimental: as §1
# Ret(h) = molecular target: T33, Ret(h) (Homo sapiens, UniProt P07949)
# T33 construct: purchased Eurofins Cerep SA (KinaseProfiler)
# Experimental: as §1
# SAPK2a(h) = molecular target: T34, SAPK2a(h) (Homo sapiens, UniProt Q16539)
# T34 construct: purchased Eurofins Cerep SA (KinaseProfiler)
# Experimental: as §1
# SAPK3(h) = molecular target: T35, SAPK3(h) (Homo sapiens, UniProt P53778)
# T35 construct: purchased Eurofins Cerep SA (KinaseProfiler)
# Experimental: as §1
# STK25(h) = molecular target: T36, STK25(h) (Homo sapiens, UniProt O00506)
# T36 construct: purchased Eurofins Cerep SA (KinaseProfiler)
# Experimental: as §1
# STK33(h) = molecular target: T37, STK33(h) (Homo sapiens, UniProt Q9BYT3)
# T37 construct: purchased Eurofins Cerep SA (KinaseProfiler)
# Experimental: as §1
# TAO1(h) = molecular target: T38, TAO1(h) (Homo sapiens, UniProt Q7L7X3)
# T38 construct: purchased Eurofins Cerep SA (KinaseProfiler)
# T38 sequence (Q7L7X3 whole entry): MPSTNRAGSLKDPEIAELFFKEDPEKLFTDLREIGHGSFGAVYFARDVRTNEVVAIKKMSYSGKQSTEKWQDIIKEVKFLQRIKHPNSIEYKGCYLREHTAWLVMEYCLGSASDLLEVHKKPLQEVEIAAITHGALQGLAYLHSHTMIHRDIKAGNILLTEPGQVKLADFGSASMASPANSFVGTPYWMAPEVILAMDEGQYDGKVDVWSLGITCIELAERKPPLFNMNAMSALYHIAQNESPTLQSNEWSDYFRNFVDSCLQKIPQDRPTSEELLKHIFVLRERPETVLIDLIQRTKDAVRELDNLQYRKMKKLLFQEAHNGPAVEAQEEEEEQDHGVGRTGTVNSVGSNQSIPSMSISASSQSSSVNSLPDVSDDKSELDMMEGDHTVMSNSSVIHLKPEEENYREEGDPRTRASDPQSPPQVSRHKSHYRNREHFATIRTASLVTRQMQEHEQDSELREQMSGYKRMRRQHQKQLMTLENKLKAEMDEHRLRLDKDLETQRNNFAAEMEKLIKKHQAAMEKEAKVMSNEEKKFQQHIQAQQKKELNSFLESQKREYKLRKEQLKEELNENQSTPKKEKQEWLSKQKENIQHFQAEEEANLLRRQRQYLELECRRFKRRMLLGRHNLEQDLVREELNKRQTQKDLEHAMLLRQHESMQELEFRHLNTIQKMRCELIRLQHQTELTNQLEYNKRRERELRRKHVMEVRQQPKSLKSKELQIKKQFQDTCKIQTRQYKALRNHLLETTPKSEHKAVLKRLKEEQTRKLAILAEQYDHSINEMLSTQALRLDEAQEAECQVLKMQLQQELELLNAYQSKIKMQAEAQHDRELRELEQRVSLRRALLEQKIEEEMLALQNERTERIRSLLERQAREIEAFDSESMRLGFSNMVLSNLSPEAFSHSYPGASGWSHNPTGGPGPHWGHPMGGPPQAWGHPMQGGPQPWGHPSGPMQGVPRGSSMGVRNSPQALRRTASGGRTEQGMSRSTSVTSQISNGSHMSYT
# Experimental: as §1
# TGFBR2(h) = molecular target: T39, TGFBR2(h) (Homo sapiens, UniProt P37173)
# T39 construct: purchased Eurofins Cerep SA (KinaseProfiler)
# Experimental: as §1
# TYK2(h) = molecular target: T40, TYK2(h) (Homo sapiens, UniProt P29597)
# T40 construct: purchased Eurofins Cerep SA (KinaseProfiler)
# Experimental: as §1
# mTOR/FKBP12(h) = molecular target: T41, mTOR/FKBP12(h) (Homo sapiens, UniProt P42345)
# T41 construct: purchased Eurofins Cerep SA (KinaseProfiler)
# Experimental: as §1
structure (smiles),measurement,setting,value
"CN(C)Cc1cccc(Nc2ncc(Cl)c(-c3csc(C(=O)NN4CCOCC4)c3)n2)c1 [SKLB-D18, 4-(5-chloro-2-((3-((dimethylamino)methyl)phenyl)amino)pyrimidin-4-yl)-N-morpholinothiophene-2-carboxamide]",inhibition at 1 µM,AAK1(h),58%
same,inhibition at 1 µM,Aurora-B(h),66%
same,inhibition at 1 µM,Axl(h),36%
same,inhibition at 1 µM,BTK(h),8%
same,inhibition at 1 µM,Bmx(h),46%
same,inhibition at 1 µM,CDK6/cyclinD3(h),47%
same,inhibition at 1 µM,CDKL1(h),48%
same,inhibition at 1 µM,CaMKI(h),16%
same,inhibition at 1 µM,CaMKIIβ(h),44%
same,inhibition at 1 µM,CaMKK2(h),21%
same,inhibition at 1 µM,FGFR1(h),70%
same,inhibition at 1 µM,GCK(h),57%
same,inhibition at 1 µM,Hck(h) activated,32%
same,inhibition at 1 µM,IKKβ(h),53%
same,inhibition at 1 µM,MAK(h),46%
same,inhibition at 1 µM,MAP4K4(h),14%
same,inhibition at 1 µM,MAP4K5(h),51%
same,inhibition at 1 µM,MKK3(h),4%
same,inhibition at 1 µM,Mnk1(h),62%
same,inhibition at 1 µM,MuSK(h),20%
same,inhibition at 1 µM,NEK4(h),66%
same,inhibition at 1 µM,NEK9(h),56%
same,inhibition at 1 µM,OSR1(h),28%
same,inhibition at 1 µM,PAK3(h),27%
same,inhibition at 1 µM,PAK5(h),26%
same,inhibition at 1 µM,PAK6(h),10%
same,inhibition at 1 µM,PASK(h),13%
same,inhibition at 1 µM,[1],-2%
same,inhibition at 1 µM,PI3KC2a(h),1%
same,inhibition at 1 µM,PKG1α(h),9%
same,inhibition at 1 µM,PKG1β(h),4%
same,inhibition at 1 µM,Plk1(h),-5%
same,inhibition at 1 µM,Ret(h),81%
same,inhibition at 1 µM,SAPK2a(h),9%
same,inhibition at 1 µM,SAPK3(h),25%
same,inhibition at 1 µM,STK25(h),7%
same,inhibition at 1 µM,STK33(h),63%
same,inhibition at 1 µM,TAO1(h),62%
same,inhibition at 1 µM,TGFBR2(h),30%
same,inhibition at 1 µM,TYK2(h),83%
same,inhibition at 1 µM,mTOR/FKBP12(h),8%
